Measurements from patent publication US9963461B2, “Phillygenin ibuprofen ester, preparation method therefor, and application thereof” (priority 2014, dated 2018).
Marks after values point to notes of the source that are not given here.

Assays:
[1] = tested on: Coxsackie virus A16 (CoxA16); experiment: Impact of the drugs on the virus-induced cytopathy (MTT); format: cell-based; conditions: CoxA16 100 TCID50, Vero cells, about the maximal non-cytotoxic concentration, 72 hours
[2] = tested on: sweat secretion of rat paw part; experiment: Sweat secretion of rat paw part (coloring method); format: in vivo, Wistar rats; conditions: for Animal number of sweat points of level +: + = sweat area below about 10%; for Animal number of sweat points of level ++: ++ = sweat area about 11-40%; for Animal number of sweat points of level +++: +++ = sweat area about 41-70%; for Animal number of sweat points of level ++++: ++++ = sweat area over 71%; for Animal number of sweat points of level −: − = no sweat point
Excerpt: This test was designed to observe the change of sweat secretion based on the mechanism that sweat gland is distributed on the rat paw pads, and iodine and starch can have purple reaction when encountered with sweat. In the test, 350 Wistar rats were selected, with equal male and female number, weighing 120-150 g. […] The rats were placed in a self-made rat fixation bag, with the double hind limbs exposed. The dirts on the right paw was gently scrubbed clean with the cotton swab dipped with anhydrous ethanol. Besides that subcutaneous injection was used for the pilocarpine solution, intragastric administration was used for all the other groups. […] When the test was complete, statistical process was carried out according to the rank-sum test with two-sample comparison, in order to compare the difference between the groups.

[3] = after coating B liquid for 1 minute, 2.5 mg/kg intragastric
[4] = after coating B liquid for 1 minute, 5.0 mg/kg intragastric
[5] = after coating B liquid for 1 minute, 10.0 mg/kg intragastric
[6] = after coating B liquid for 5 minutes, 2.5 mg/kg intragastric
[7] = after coating B liquid for 5 minutes, 5.0 mg/kg intragastric
[8] = after coating B liquid for 5 minutes, 10.0 mg/kg intragastric
[9] = after coating B liquid for 10 minutes, 2.5 mg/kg intragastric
[10] = after coating B liquid for 10 minutes, 5.0 mg/kg intragastric
[11] = after coating B liquid for 10 minutes, 10.0 mg/kg intragastric
[12] = after coating B liquid for 15 minutes (Table 2-4), 2.5 mg/kg intragastric
[13] = after coating B liquid for 15 minutes (Table 2-4), 5.0 mg/kg intragastric
[14] = after coating B liquid for 15 minutes (Table 2-4), 10.0 mg/kg intragastric
[15] = after coating B liquid for 15 minutes (Table 2-5), 2.5 mg/kg intragastric

COc1ccc([C@H]2OCC3C2CO[C@H]3c2ccc(OC)c(OC(=O)C(C)c3ccc(CC(C)C)cc3)c2)cc1OC (stereo partly shown) [Phillygenin ibuprofen ester, phillygenin ibuprofen ester]
5: Animal number of sweat points of level ++++ [2, 5] | Animal number of sweat points of level ++++ [2, 7] | Animal number of sweat points of level ++++ [2, 8] | Animal number of sweat points of level ++++ [2, 10] | Animal number of sweat points of level ++++ [2, 11] | Animal number of sweat points of level ++++ [2, 12] | Animal number of sweat points of level ++++ [2, 13] | Animal number of sweat points of level ++++ [2, 14]
75.89**^## %: antiviral effective rate (ER %) [1]
4: Animal number of sweat points of level ++++ [2, 4] | Animal number of sweat points of level ++ [2, 7] | Animal number of sweat points of level ++++ [2, 9] | Animal number of sweat points of level +++ [2, 14]
obvious promoting effect: effect on the sweat secretion of rat paw part vs control group ([2]; 10 mg/kg, after coating B liquid for 5, 10, 15 and 20 min, P<0.05)
2: Animal number of sweat points of level + [2, 3] | Animal number of sweat points of level ++++ [2, 3] | Animal number of sweat points of level ++ [2, 4] | Animal number of sweat points of level +++ [2, 8] | Animal number of sweat points of level ++ [2, 9] | Animal number of sweat points of level +++ [2, 10] | Animal number of sweat points of level ++ [2, 11] | Animal number of sweat points of level ++ [2, 13] | Animal number of sweat points of level ++ [2, 15]
3: Animal number of sweat points of level ++ [2, 3] | Animal number of sweat points of level +++ [2, 3] | Animal number of sweat points of level +++ [2, 4] | Animal number of sweat points of level ++ [2, 5] | Animal number of sweat points of level ++ [2, 6] | Animal number of sweat points of level +++ [2, 6] | Animal number of sweat points of level ++++ [2, 6] | Animal number of sweat points of level ++ [2, 8] | Animal number of sweat points of level +++ [2, 9] | Animal number of sweat points of level ++ [2, 10] | Animal number of sweat points of level +++ [2, 11] | Animal number of sweat points of level ++ [2, 12] | Animal number of sweat points of level +++ [2, 13]
1: Animal number of sweat points of level + [2, 4] | Animal number of sweat points of level + [2, 5] | Animal number of sweat points of level +++ [2, 5] | Animal number of sweat points of level + [2, 6] | Animal number of sweat points of level + [2, 7] | Animal number of sweat points of level +++ [2, 7] | Animal number of sweat points of level + [2, 9] | Animal number of sweat points of level + [2, 12] | Animal number of sweat points of level +++ [2, 12] | Animal number of sweat points of level ++ [2, 14]
0: Animal number of sweat points of level − [2, 3] | Animal number of sweat points of level − [2, 4] | Animal number of sweat points of level − [2, 5] | Animal number of sweat points of level − [2, 6] | Animal number of sweat points of level − [2, 7] | Animal number of sweat points of level + [2, 8] | Animal number of sweat points of level − [2, 8] | Animal number of sweat points of level − [2, 9] | Animal number of sweat points of level + [2, 10] | Animal number of sweat points of level − [2, 10] | Animal number of sweat points of level + [2, 11] | Animal number of sweat points of level − [2, 11] | Animal number of sweat points of level − [2, 12] | Animal number of sweat points of level + [2, 13] | Animal number of sweat points of level − [2, 13] | Animal number of sweat points of level + [2, 14] | Animal number of sweat points of level − [2, 14] | Animal number of sweat points of level + [2, 15]
